Reference: paper PMC7177633, “Effective Cellular Transport of Ortho-Halogenated Sulfonamide Derivatives of Metformin Is Related to Improved Antiproliferative Activity and Apoptosis Induction in MCF-7 Cells” (International Journal of Molecular Sciences, 2020)

Assays:
MDA-MB-231 cells = experiment: Uptake in the presence of OCT and MATE inhibitors, MDA-MB-231 cells; type: in vitro ADME, human; details: for interactions with OCT, PMAT and MATE1 transporters, MDA-MB-231: summary from uptake with inhibitors
Description: The uptake of sulfonamide derivatives of metformin (1–9) in MCF-7 and MDA-MB-231 cells was studied also in the presence of disopyramide, cimetidine (OCT1 and 3 inhibitors), lopinavir (OCT and PMAT inhibitor) and methenamine (MATE and OCT2 inhibitors). The cells were incubated (37 °C, 10 min) with compounds 1–9 at concentrations of 400 and 800 μmol/L and inhibitors (disopyramide, cimetidine, lopinavir or methenamine) in 250 μL of prewarmed HBSS buffer. The protocol of determination of the compound concentration was as described above.

OCTs = experiment: Inhibition of [14C]choline uptake in MDA-MB-231 cells (competitive inhibition assay); type: cell-based, human; details: mean ± SD (n = 3)
Description: The following day, after removal of the culture medium, the cells were carefully washed with prewarmed HBSS (Hanks’ balanced salt solution) containing 125 mM NaCl, 4.8 mM KCl, 1.2 mM MgSO4, 1.2 mM KH2PO4, 1.3 mM CaCl2, 5.6 mM glucose and 25 mM HEPES (pH 7.4). […] Then, the cells were washed three times with ice-cold HBSS (500 μL) and were lysed with 250 μL of 0.1-M NaOH in the ice bath, and the lysate was mixed with 1.0 mL of an emulsifier safe cocktail (PerkinElmer, Waltham, MA, USA). The radioactivity was measured by liquid scintillation counting (MicroBeta^2 counter, PerkinElmer, Waltham, MA, USA). The studies were carried out with the use of at least three replicates from the same cell passage.

MCF-7 cells = experiment: Intracellular GSH and GSSG, MCF-7; type: cell-based, human
Description: The quantitative determination of glutathione and glutathione disulfide was performed using the enzymatic recycling method according to the protocol of Rahman. The cells were seeded at a density of 2 × 10^5 per well in a 6-well plate and cultured for 48 h. Then, the cells were treated with tested compounds 1, 4 and 7 at their respective ¼ and ½ IC50 values for MCF-7 and MDA-MB-231 cells. Additionally, controls with pure medium, AAPH (2,2′-Azobis(2-methylpropionamidine) dihydro-chloride, Sigma Aldrich, St. Louis, MO, USA) and ascorbic acid (Polish Chemical Reagents, Poland) were performed. The cells were incubated with compounds for another 24 h, then washed twice with 2 mL of cold, Ca^2+-/Mg^2+-free PBS (Biomed Lublin, Lublin, Poland). The cells were harvested using 1-mL accutase (Sigma Aldrich, St. Louis, MO, USA), and the wells were washed with 1 mL of cold growth medium. The cells were transferred to prechilled 2.0-mL Eppendorf tubes and centrifuged at 1000× g for 5 min at 4 °C. The supernatant was discarded, the pellets were resuspended in 1 mL of cold PBS, the number of cells was determined in each sample and the cellular suspension was centrifuged again. PBS was discarded, and the pellets were stored covered with 30-µL PBS at –70 °C. The following day, the cells were suspended in 0.5 mL of ice-cold extraction buffer (0.1% Triton-X (Polish Chemical Reagents, Gliwice, Poland) and 0.6% sulfosalicylic acid (Sigma Aldrich) in a potassium phosphate buffer with EDTA (Sigma Aldrich)) and sonicated in icy water for 3 min with vortexing every 30 s. The cells were frozen once again at −80 °C, defrosted on ice and frozen once again. Following the second freeze–thaw cycle, the cells were centrifuged at 1500× g for 5 min at 4 °C, and then, immediately, the supernatant was transferred to prechilled Eppendorf tubes. The samples were divided into two parts: one was used to measure GSH, and the other one was derivatized by an addition of 4 µL of 2-vinylpyridine (diluted 1:10 with phosphate buffer) (Sigma Aldrich, St. Louis, MO, USA) to determine the GSSG content.
GSH measurements included an addition of 20 µL of the tested sample, blank or GSH standard, 120 µL of the mixture of an equal volume of DTNB solution (2 mg dissolved in 3 mL of phosphate buffer, Sigma Aldrich) and glutathione reductase (10 U in 3 mL of phosphate buffer, Sigma Aldrich, St. Louis, MO, USA) and 30 s of incubation to allow the conversion of GSSG to GSH. The final step included the addition of 60 µL of β-NADPH (2 mg dissolved in 3 mL of phosphate buffer, Sigma Aldrich). The absorbance was read immediately at 415 nm in a microplate reader (Bio-Rad), and the measurements were taken every 30 s for 2 min (6 readings in total). The amount of GSH was calculated on the basis of the calibration curve prepared using GSH (Sigma Aldrich, St. Louis, MO, USA) at concentrations ranging from 0.040 to 2.6 nmol/mL.
The quantification of GSSG in the test samples was performed according to the same procedure as GSH. The samples treated with 2-VP were incubated for one hour at room temperature, and then, 20 µL of the tested sample was analyzed using the same reagents which were applied in the GSH measurements. The amount of GSSG was calculated on the basis of the calibration curve, prepared using GSSG (Sigma Aldrich) at concentrations of 0.040–2.6 nmol/mL. The results are presented as mean ± SD, n = 6–8 and expressed as nmol per […].

[1] = compound and inhibitor 400 and 800 µmol/L, 10 min, 37 °C

Structure (SMILES) | uptake in the presence of cimetidine, MDA-MB-231 (MDA-MB-231 cells; [1]) | uptake in the presence of disopyramide, MDA-MB-231 (MDA-MB-231 cells; [1]) | uptake in the presence of lopinavir, MDA-MB-231 (MDA-MB-231 cells; [1]) | uptake in the presence of methenamine, MDA-MB-231 (MDA-MB-231 cells; [1]) | interactions with OCT, PMAT and MATE1 transporters, MDA-MB-231 (MDA-MB-231 cells) | IC50 (OCTs) [µM] | GSH (MCF-7 cells; MCF-7, 1/2 × IC50, 24 h) [nmol/1 mln Cells] | GSH:GSSG Ratio (MCF-7 cells; MCF-7, 1/2 × IC50, 24 h) | GSSG (MCF-7 cells; MCF-7, 1/2 × IC50, 24 h) [nmol/1 mln Cells] | GSH (MCF-7 cells; MCF-7, 1/4 × IC50, 24 h) [nmol/1 mln Cells] | GSH:GSSG Ratio (MCF-7 cells; MCF-7, 1/4 × IC50, 24 h) | GSSG (MCF-7 cells; MCF-7, 1/4 × IC50, 24 h) [nmol/1 mln Cells]
CN(C)C(=N)N=C(N)NS(=O)(=O)c1ccccc1Cl [Compound 1] | No statistically significant changes | significantly higher uptake | significantly higher uptake | No statistically significant changes | OCT1, PMAT | 2135 ± 14 | 167.5 ± 5.1 | 22.6 | 7.4 ± 1.8 | 183.1 ± 8.9 | 20.1 | 9.1 ± 3.9
CN(C)C(=N)N=C(N)NS(=O)(=O)c1ccccc1F [Compound 7] |  |  |  |  | OCT1, OCT3 | 5149 ± 22 | 169.0 ± 6.0 | 15.9 | 10.6 ± 0.4 | 166.8 ± 12.8 | 21.2 | 7.9 ± 0.9
CN(C)C(=N)N=C(N)NS(=O)(=O)c1ccccc1Br [Compound 4] | significantly decreased | significantly decreased | increased |  | OCT1, OCT3, PMAT | 920 ± 13 | 148.5 ± 4.8 | 24.0 | 6.2 ± 0.7 | 165.4 ± 9.6 | 19.2 | 8.6 ± 0.7
